Consider one substance from patent US10278988B2, “Reducing the proliferation of carcinoma cells by administration of a poly-oxygenated metal hydroxide” (priority 2016, dated 2019).

This data set deals with mammal. The settings on record: in vivo.

As to “poly-oxygenated aluminum hydroxide [Ox66™]”, the “negative effects in toxicology studies” value was “does not create any negative effects”.
